Source: ChEMBL document CHEMBL1201862, “PubChem BioAssay data set” (2004)
Activity calls are given as the source filed them.

Legend:
[1] = target: T1, Heat shock factor protein 1 (Mus musculus, UniProt P38532); test: decrease of HSF1-responsive luciferase luminescence – cell-based, NIH3T3, dose retest, confirmation (AID 2382); assay type: functional;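 also: NIH3T3 fibroblasts with HSF1-driven luciferase reporter stressed by proteasome inhibitor MG132; luminescence from HSF1-driven luciferase expression after 8 hours of MG132 stress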
T1 sequence (P38532 whole entry): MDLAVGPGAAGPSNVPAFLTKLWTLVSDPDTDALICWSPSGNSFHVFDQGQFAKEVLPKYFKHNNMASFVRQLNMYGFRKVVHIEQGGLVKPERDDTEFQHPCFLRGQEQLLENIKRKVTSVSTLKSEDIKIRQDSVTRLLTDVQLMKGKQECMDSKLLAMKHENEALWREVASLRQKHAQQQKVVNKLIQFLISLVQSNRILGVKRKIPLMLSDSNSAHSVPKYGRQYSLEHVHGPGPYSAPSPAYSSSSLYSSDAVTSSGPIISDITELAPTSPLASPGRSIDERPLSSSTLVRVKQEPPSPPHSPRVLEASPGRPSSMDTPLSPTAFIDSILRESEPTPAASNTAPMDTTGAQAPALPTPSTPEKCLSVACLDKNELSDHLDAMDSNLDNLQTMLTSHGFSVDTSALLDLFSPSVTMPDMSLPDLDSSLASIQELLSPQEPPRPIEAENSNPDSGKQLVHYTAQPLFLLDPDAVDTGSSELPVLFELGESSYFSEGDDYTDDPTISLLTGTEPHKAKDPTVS

[2] = target: T2, Sentrin-specific protease 8 (Homo sapiens, UniProt Q96LD8); assay type: functional
T2 sequence (Q96LD8 whole entry): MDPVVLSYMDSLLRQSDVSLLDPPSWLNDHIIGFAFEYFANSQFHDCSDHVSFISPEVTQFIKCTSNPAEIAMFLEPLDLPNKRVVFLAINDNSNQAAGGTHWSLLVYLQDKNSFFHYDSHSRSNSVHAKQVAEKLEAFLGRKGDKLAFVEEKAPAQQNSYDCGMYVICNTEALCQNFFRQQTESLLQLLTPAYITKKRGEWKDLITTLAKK

[3] = target: T2, Sentrin-specific protease 8; assay type: functional; remark: listed apart in the source
Caspase-6 = target: T3, Caspase-6 (Homo sapiens, UniProt P55212); test: inhibition of CASP6 peptide cleavage – biochemical, VEID-R110 fluorescence, cherry-pick, dose response (AID 720632)
T3 sequence (P55212 whole entry): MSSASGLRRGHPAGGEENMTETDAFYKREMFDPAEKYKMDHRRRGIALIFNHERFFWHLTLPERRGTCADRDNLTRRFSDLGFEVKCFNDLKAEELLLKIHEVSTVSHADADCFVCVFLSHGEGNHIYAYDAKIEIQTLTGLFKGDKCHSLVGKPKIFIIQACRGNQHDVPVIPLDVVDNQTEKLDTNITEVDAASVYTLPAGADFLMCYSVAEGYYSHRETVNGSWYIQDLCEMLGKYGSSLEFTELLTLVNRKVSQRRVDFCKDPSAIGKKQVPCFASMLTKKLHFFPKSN

Aminopeptidase N = target: T4, Aminopeptidase N (Plasmodium falciparum FcB1/Columbia, UniProt O96935); test: malaria alanyl aminopeptidase activity blockers – biochemical, fluorogenic H-Leu-NHMec substrate, 1536-well (AID 1445); parameters: species or system Plasmodium falciparum 3D7, 3D7
T4 sequence (O96935 whole entry): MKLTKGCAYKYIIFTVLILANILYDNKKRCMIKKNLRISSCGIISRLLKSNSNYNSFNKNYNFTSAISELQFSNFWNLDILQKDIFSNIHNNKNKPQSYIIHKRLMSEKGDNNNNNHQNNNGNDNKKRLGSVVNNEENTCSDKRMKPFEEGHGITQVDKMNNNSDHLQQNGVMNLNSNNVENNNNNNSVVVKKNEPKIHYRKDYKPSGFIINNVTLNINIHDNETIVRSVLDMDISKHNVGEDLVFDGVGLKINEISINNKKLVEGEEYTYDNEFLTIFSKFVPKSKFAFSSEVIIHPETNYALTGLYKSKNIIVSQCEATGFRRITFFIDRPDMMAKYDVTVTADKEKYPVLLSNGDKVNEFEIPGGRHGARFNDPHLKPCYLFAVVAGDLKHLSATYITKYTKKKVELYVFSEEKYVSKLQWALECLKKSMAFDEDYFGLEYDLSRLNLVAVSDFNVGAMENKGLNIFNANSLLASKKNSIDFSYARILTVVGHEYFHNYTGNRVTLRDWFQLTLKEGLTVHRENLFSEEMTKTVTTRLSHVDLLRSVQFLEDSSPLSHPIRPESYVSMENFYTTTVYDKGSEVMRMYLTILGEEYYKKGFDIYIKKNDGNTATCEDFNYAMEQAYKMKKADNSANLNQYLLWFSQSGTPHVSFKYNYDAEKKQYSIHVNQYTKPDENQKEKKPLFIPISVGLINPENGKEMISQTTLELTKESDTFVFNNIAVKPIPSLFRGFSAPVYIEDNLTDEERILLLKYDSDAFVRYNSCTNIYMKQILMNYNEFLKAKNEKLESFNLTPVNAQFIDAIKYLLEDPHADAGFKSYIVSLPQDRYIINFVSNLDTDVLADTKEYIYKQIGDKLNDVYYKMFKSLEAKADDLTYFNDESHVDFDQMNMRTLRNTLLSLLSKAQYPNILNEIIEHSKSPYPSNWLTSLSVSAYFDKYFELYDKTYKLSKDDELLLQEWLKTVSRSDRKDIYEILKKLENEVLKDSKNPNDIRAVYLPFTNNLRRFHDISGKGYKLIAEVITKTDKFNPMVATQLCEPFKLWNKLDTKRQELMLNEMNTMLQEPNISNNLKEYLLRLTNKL

[4] = system: Streptococcus sp. 'group A'; test: Streptococcus pyogenes SK(-)GAS viability under kanamycin – luminescence, BacTiterGlo, confirmation, counter-screen for streptokinase expression inhibitor project, dose response (AID 1900); assay type: functional, organism-based
Streptokinase A = target: T5, Streptokinase A (Streptococcus pyogenes serotype M1, UniProt P10520); test: viability-normalized secreted streptokinase activity reduction – plasminogen activation absorbance, OD405, dose response (AID 1914); assay type: functional, Streptococcus pyogenes M1 GAS;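 also: secreted streptokinase activity via plasminogen activation per viability signal from cell pellet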
T5 sequence (P10520 whole entry): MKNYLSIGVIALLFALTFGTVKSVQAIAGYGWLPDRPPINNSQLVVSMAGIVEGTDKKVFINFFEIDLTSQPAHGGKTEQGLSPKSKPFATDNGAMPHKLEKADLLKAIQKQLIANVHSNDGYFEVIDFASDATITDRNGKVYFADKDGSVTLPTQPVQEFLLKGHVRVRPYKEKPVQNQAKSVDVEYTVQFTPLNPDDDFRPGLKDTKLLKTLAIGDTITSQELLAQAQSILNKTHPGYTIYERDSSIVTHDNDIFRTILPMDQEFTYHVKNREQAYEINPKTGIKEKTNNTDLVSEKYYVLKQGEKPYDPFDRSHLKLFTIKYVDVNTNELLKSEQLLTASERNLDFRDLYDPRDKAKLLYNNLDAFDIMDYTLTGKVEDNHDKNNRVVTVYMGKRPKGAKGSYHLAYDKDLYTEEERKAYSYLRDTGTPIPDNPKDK

Streptococcus = test: GAS UMAA2166 growth inhibition – luminescence, BacTiterGlo, counter-screen for streptokinase expression inhibitor project, dose response (AID 1915); assay type: functional, organism-based;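 also: potency for reduction of bacterial viability or growth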
[5] = target: T6, High affinity choline transporter 1 (Homo sapiens, UniProt Q9GZV3); test: human choline transporter blockers, potency – cell-based, 5-point CRC, membrane potential dye, dose response (AID 504840); assay type: functional
T6 sequence (Q9GZV3 whole entry): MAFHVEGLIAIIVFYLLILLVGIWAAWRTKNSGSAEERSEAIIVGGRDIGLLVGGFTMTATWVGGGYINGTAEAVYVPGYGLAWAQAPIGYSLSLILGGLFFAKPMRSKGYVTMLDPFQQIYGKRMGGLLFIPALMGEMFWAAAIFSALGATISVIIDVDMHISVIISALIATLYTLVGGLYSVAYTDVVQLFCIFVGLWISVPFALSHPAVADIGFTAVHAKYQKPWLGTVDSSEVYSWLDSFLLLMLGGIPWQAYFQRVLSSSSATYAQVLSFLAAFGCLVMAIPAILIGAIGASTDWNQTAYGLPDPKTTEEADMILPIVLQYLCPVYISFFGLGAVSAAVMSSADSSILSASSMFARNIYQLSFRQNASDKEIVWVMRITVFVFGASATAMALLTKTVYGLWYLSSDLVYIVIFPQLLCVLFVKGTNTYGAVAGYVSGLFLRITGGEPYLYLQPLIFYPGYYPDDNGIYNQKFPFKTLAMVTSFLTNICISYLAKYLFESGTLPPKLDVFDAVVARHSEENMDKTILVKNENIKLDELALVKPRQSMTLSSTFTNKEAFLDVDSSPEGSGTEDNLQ

[6] = target: T6, High affinity choline transporter 1; test: human choline transporter blockers, potency – cell-based, 10-point CRC, membrane potential dye, dose response (AID 588401); assay type: functional;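 also: membrane potential dye fluorescence of choline-evoked depolarization via CHT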
Genome polyprotein = Genome polyprotein (dengue virus type 2, UniProt P29990); test: flavivirus cap methylation enzyme inhibition – biochemical, confirmation dose response, primary screen (AID 588689); assay type: functional
[7] = target: Tyrosine-protein phosphatase non-receptor type 11 (Homo sapiens, UniProt Q06124); test: PTPN11 enzyme inhibitors – biochemical, selectivity assay for STEP inhibitor project, dose response (AID 602367); assay type: functional; settings: read-out: IC50_Mean
[8] = target: Tyrosine-protein phosphatase non-receptor type 5 (Homo sapiens, UniProt P54829); test: PTPN5 enzyme inhibition – biochemical, fluorescence intensity, uHTS hits, confirmation (AID 602372); assay type: functional; settings: read-out: IC50_Mean
[9] = target: Dual specificity protein phosphatase 3 (Homo sapiens, UniProt P51452); test: VHR phosphatase inhibition, dose response, selectivity assay for STEP inhibitor project, biochemical (AID 602374); assay type: functional; settings: read-out: IC50_Mean
[10] = HEK-293T viability loss after treatment – luminescence, T-cell screen hits, cytotoxicity control for TCR NF-kB inhibitor project, dose response (AID 489026); assay type: functional, cell-based;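 also: cells exposed to compound about 14 hours before the viability readout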
Beta-galactosidase = Beta-galactosidase (Escherichia coli, UniProt Q8VNN2); test: Dose response counterscreen for EBI2 assay utilizing the enzyme, b-galactosidase.; assay type: functional
[11] = bead-based luminescence quenchers, dual-tagged ARNT – biochemical, AlphaScreen, cherry-pick, artefact control for ARNT-TACC3 interaction inhibitor project, dose response (AID 651705); assay type: functional;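 also: AlphaScreen bead proximity signal that flags compounds interfering with the detection technology; potency reflects signal decrease which marks the compound as an assay artifact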

Dual specificity protein phosphatase 3, sequence (P51452 whole entry): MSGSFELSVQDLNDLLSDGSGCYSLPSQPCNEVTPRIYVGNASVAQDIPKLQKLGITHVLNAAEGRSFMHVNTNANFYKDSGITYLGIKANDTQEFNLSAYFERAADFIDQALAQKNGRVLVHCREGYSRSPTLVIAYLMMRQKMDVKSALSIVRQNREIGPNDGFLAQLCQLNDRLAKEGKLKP
Tyrosine-protein phosphatase non-receptor type 5, sequence (P54829 whole entry): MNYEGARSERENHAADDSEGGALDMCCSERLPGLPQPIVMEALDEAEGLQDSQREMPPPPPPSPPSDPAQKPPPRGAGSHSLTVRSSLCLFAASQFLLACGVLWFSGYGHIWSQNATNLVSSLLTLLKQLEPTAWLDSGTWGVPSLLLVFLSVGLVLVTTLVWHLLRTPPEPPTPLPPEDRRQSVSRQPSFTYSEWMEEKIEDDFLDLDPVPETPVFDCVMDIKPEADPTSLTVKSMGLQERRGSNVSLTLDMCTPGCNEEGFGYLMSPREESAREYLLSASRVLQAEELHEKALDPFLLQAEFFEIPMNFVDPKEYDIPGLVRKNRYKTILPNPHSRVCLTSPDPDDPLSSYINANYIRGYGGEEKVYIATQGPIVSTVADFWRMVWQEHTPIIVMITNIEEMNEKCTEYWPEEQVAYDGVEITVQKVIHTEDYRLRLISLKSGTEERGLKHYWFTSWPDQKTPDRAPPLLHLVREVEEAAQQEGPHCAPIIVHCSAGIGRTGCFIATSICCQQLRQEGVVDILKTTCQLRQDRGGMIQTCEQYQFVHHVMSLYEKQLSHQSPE
Tyrosine-protein phosphatase non-receptor type 11, sequence (Q06124 whole entry): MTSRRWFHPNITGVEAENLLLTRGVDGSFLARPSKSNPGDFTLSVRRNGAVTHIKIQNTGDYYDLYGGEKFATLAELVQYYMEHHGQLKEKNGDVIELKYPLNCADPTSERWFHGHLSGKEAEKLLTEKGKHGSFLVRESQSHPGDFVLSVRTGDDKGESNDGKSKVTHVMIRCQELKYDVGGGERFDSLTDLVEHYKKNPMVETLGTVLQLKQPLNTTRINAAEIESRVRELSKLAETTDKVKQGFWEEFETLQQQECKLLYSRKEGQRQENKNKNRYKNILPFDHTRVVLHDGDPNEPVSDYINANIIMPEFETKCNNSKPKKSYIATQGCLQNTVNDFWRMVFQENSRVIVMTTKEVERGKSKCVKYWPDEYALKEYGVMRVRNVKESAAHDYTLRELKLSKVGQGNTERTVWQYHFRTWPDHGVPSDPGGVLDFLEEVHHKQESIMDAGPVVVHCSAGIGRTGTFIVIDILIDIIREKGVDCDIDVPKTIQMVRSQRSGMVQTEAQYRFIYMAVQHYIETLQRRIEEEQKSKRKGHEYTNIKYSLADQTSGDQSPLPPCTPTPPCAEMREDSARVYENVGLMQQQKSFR
Genome polyprotein, sequence (P29990 2492-3391 limits assumed): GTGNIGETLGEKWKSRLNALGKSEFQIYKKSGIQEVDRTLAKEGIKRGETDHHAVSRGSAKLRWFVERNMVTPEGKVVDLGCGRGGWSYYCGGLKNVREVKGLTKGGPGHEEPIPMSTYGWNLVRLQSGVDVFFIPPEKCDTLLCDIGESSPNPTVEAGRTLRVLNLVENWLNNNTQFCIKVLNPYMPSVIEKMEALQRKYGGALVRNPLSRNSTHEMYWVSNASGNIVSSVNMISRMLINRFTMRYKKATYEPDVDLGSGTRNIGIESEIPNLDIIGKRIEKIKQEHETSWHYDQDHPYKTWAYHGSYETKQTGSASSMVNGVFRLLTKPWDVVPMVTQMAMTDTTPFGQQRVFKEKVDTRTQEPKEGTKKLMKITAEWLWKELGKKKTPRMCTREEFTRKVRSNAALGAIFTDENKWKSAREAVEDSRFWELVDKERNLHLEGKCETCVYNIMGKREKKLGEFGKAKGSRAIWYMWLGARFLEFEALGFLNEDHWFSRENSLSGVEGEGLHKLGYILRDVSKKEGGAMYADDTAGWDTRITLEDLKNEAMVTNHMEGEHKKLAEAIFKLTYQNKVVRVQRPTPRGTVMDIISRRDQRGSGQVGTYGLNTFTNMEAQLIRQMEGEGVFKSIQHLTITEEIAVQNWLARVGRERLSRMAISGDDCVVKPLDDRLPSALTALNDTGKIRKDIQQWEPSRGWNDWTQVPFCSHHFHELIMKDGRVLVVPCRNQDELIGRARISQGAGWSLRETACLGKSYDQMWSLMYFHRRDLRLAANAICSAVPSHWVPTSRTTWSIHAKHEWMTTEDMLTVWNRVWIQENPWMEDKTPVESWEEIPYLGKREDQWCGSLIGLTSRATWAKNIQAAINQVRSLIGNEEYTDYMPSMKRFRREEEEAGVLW
Beta-galactosidase, sequence (Q8VNN2 whole entry): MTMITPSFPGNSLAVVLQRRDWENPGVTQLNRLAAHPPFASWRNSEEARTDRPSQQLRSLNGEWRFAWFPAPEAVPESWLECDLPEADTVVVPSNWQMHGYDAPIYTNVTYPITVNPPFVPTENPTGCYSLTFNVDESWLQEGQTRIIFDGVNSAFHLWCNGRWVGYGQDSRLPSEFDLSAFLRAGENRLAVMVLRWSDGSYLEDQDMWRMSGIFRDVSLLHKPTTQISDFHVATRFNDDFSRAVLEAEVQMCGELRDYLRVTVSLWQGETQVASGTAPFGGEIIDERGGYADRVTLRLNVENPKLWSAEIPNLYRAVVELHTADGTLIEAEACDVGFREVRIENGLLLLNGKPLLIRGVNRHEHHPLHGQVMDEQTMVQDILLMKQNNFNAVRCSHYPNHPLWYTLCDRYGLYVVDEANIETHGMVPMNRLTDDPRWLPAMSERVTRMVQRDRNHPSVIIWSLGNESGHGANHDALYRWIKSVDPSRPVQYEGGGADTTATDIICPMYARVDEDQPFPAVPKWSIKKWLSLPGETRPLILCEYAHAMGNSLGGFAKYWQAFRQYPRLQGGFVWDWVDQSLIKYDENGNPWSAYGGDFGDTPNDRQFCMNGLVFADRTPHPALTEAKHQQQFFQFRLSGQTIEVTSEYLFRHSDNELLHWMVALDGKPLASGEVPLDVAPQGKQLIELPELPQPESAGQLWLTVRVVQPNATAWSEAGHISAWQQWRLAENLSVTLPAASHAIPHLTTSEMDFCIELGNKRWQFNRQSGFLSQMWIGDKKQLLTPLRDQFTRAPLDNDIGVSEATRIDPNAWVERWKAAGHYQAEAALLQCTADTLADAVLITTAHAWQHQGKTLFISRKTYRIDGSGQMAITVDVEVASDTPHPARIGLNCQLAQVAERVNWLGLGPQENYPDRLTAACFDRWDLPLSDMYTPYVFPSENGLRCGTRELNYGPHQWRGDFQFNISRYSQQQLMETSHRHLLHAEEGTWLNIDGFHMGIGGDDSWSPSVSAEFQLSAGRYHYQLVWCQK

O=C1Cc2ccccc2C(=O)N1c1cccc(Cl)c1
EC50 [1]: > 195 µM (not active) | IC50 [2]: > 100 µM (inactive) | IC50 [3]: 6.08 µM (active) | AC50 (Caspase-6): 35.6 µM (active)

COc1cc(/C=C2\SC(NS(=O)(=O)c3ccccc3)=NC2=O)c([N+](=O)[O-])cc1OC
IC50 (Aminopeptidase N): 25.5 µM (active) | EC50 [4]: 25.6 µM (active) | EC50 (Streptokinase A): > 150 µM (not active) | EC50 (Streptococcus): > 150 µM (not active) | IC50 [5]: 4.17 µM (active) | IC50 [6]: 8.91 µM (active) | IC50 (Genome polyprotein): 43.4 µM (active)

COc1ccc(NC(=S)N(CCCN2CCC(C)CC2)Cc2cccs2)cc1Cl
IC50 [7]: 6.76 µM (active) | IC50 [8]: 55.6 µM (inactive) | IC50 [9]: 4.18 µM (active)

Cc1cccc(N2CCN(C(=O)c3ccc4[nH]c(C)c(C)c4c3)CC2)c1C
IC50 [10]: > 80 µM (inactive) | IC50 (Beta-galactosidase): > 80 µM (inactive)

O=C(CSc1ccc(-c2ccccn2)nn1)c1ccc([N+](=O)[O-])cc1
AC50 [11]: 131 µM (active)

COC(=O)N/N=C1/C/C(=N\NC(=O)OC)c2ccccc21
IC50 [2]: 0.557 µM (active) | IC50 [3]: 0.365 µM (active) | AC50 (Caspase-6): 4.22 µM (active)
